From ChEMBL document CHEMBL1201862, “PubChem BioAssay data set” (2004)
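1) Cells in 96-well plates. 2) Compound, 48 h, 5 concentrations. 3) Linear interpolation between surrounding doses. 4) Unreached endpoint = highest concentration. Abbreviation: GI50, concentration required for 50% inhibition of growth.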 Activity calls are given as the source filed them. Cut-off read from the data, not from the text of the source: active = GI50 up to about 1.1 µM and inactive = higher.

Experiments:
Experiment in all cases: inhibition of tumour cell growth, NCI panel, 48 h
A498 = test system: A498
EKVX = test system: EKVX
HCC 2998 = test system: HCC 2998
HCT-15 = test system: HCT-15
KM12 = test system: KM12
LOX IMVI = test system: LOX IMVI
M14 = test system: M14
MDA-MB-435 = test system: MDA-MB-435
NCI-H23 = test system: NCI-H23
NCI-H522 = test system: NCI-H522
OVCAR-5 = test system: OVCAR-5
SF-295 = test system: SF-295
SF-539 = test system: SF-539
SK-MEL-28 = test system: SK-MEL-28
SK-MEL-2 = test system: SK-MEL-2
SK-OV-3 = test system: SK-OV-3
CAKI-1 = test system: CAKI-1
BT-549 = test system: BT-549

## CN1N=C(c2ccncc2)OC1c1ccc(C(F)(F)F)cc1 (stereo not drawn)
A498
  GI50: > 100 µM (inactive)
EKVX
  GI50: 44.6 µM (inactive)
HCC 2998
  GI50: > 100 µM (inactive)
HCT-15
  GI50: > 100 µM
KM12
  GI50: > 100 µM (inactive)
LOX IMVI
  GI50: > 100 µM (inactive)
M14
  GI50: > 100 µM (inactive)
MDA-MB-435
  GI50: > 100 µM (inactive)
NCI-H23
  GI50: > 100 µM (inactive)
NCI-H522
  GI50: > 100 µM (inactive)
OVCAR-5
  GI50: > 100 µM (inactive)
SF-295
  GI50: > 100 µM (inactive)
SF-539
  GI50: > 100 µM (inactive)
SK-MEL-28
  GI50: > 100 µM (inactive)
SK-MEL-2
  GI50: > 100 µM (inactive)
SK-OV-3
  GI50: > 100 µM (inactive)

## OC(c1nc2ccccc2s1)(C(F)(F)F)C(F)(F)F
A498
  GI50: > 100 µM (inactive)
CAKI-1
  GI50: > 100 µM (inactive)
EKVX
  GI50: > 100 µM (inactive)
HCC 2998
  GI50: > 100 µM (inactive)
HCT-15
  GI50: > 100 µM
KM12
  GI50: > 100 µM (inactive)
LOX IMVI
  GI50: > 100 µM (inactive)
M14
  GI50: > 100 µM (inactive)
MDA-MB-435
  GI50: > 100 µM (inactive)
NCI-H23
  GI50: > 100 µM (inactive)
NCI-H522
  GI50: > 100 µM (inactive)
OVCAR-5
  GI50: > 100 µM (inactive)
SF-295
  GI50: > 100 µM (inactive)
SF-539
  GI50: > 100 µM (inactive)
SK-MEL-28
  GI50: > 100 µM (inactive)
SK-MEL-2
  GI50: > 100 µM (inactive)
SK-OV-3
  GI50: > 100 µM (inactive)

## Nc1c(C(=O)c2ccccc2)nnc2ccccc12
BT-549
  GI50: 18.7 µM (inactive)
CAKI-1
  GI50: 29.5 µM (inactive)
EKVX
  GI50: 22.6 µM (inactive)
HCC 2998
  GI50: 23.4 µM (inactive)
HCT-15
  GI50: 30.1 µM
KM12
  GI50: 20.4 µM (inactive)
LOX IMVI
  GI50: 32.4 µM (inactive)
M14
  GI50: 39.3 µM (inactive)
MDA-MB-435
  GI50: 21.9 µM (inactive)
NCI-H23
  GI50: 24.8 µM (inactive)
OVCAR-5
  GI50: 36.5 µM (inactive)
SF-539
  GI50: 27.4 µM (inactive)
SK-MEL-28
  GI50: 43.9 µM (inactive)
SK-MEL-2
  GI50: 17.4 µM (inactive)

## CCC1(O)CC(CCN(Cc2ccccc2)C(=O)OCc2ccccc2)C(OCc2ccccc2)C1O (stereo not drawn)
BT-549
  GI50: 13 µM (inactive)
CAKI-1
  GI50: 25.3 µM (inactive)
EKVX
  GI50: 15.7 µM (inactive)
HCC 2998
  GI50: 14 µM (inactive)
HCT-15
  GI50: 13.4 µM
KM12
  GI50: 12.7 µM (inactive)
LOX IMVI
  GI50: 21.9 µM (inactive)
M14
  GI50: 15.5 µM (inactive)
MDA-MB-435
  GI50: 18.4 µM (inactive)
NCI-H23
  GI50: 14 µM (inactive)
NCI-H522
  GI50: 10.1 µM (inactive)
OVCAR-5
  GI50: 17.7 µM (inactive)
SF-295
  GI50: 11.1 µM (inactive)
SK-MEL-28
  GI50: 15.7 µM (inactive)
SK-MEL-2
  GI50: 14.4 µM (inactive)
SK-OV-3
  GI50: 17.4 µM (inactive)

## CN(C)CCN1C(=O)c2ccccc2C1(O)c1ccc(Cl)cc1 (stereo not drawn)
BT-549
  GI50: > 100 µM (inactive)
CAKI-1
  GI50: 40.8 µM (inactive)
EKVX
  GI50: > 100 µM (inactive)
HCC 2998
  GI50: 62.7 µM (inactive)
HCT-15
  GI50: > 100 µM
KM12
  GI50: 69.5 µM (inactive)
M14
  GI50: 42.9 µM (inactive)
MDA-MB-435
  GI50: > 100 µM (inactive)
NCI-H23
  GI50: > 100 µM (inactive)
OVCAR-5
  GI50: > 100 µM (inactive)
SF-295
  GI50: > 100 µM (inactive)
SK-MEL-28
  GI50: 37.8 µM (inactive)
SK-OV-3
  GI50: > 100 µM (inactive)

## CSc1ccc(-c2cc(-c3nc4ccccc4[nH]3)nc3[nH]c(-c4nc5ccccc5[nH]4)cc(=O)c23)cc1
BT-549
  GI50: 85.3 µM (inactive)
CAKI-1
  GI50: > 100 µM (inactive)
EKVX
  GI50: 27.1 µM (inactive)
HCC 2998
  GI50: 5.33 µM (inactive)
HCT-15
  GI50: > 100 µM
KM12
  GI50: 60.3 µM (inactive)
LOX IMVI
  GI50: 42.5 µM (inactive)
M14
  GI50: 82.4 µM (inactive)
MDA-MB-435
  GI50: 41.1 µM (inactive)
NCI-H23
  GI50: > 100 µM (inactive)
NCI-H522
  GI50: > 100 µM (inactive)
OVCAR-5
  GI50: > 100 µM (inactive)
SF-295
  GI50: 86.1 µM (inactive)
SF-539
  GI50: > 100 µM (inactive)
SK-MEL-2
  GI50: > 100 µM (inactive)
SK-OV-3
  GI50: > 100 µM (inactive)

## CN(CC(=O)O)c1ncc2c(n1)-c1ccccc1SC2
A498
  GI50: > 100 µM (inactive)
CAKI-1
  GI50: > 100 µM (inactive)
EKVX
  GI50: > 100 µM (inactive)
HCT-15
  GI50: > 100 µM
KM12
  GI50: > 100 µM (inactive)
LOX IMVI
  GI50: > 100 µM (inactive)
M14
  GI50: > 100 µM (inactive)
MDA-MB-435
  GI50: > 100 µM (inactive)
NCI-H23
  GI50: > 100 µM (inactive)
NCI-H522
  GI50: > 100 µM (inactive)
OVCAR-5
  GI50: > 100 µM (inactive)
SF-295
  GI50: > 100 µM (inactive)
SF-539
  GI50: > 100 µM (inactive)
SK-MEL-28
  GI50: > 100 µM (inactive)
SK-MEL-2
  GI50: > 100 µM (inactive)

## C1CSCC2(COC2)CS1
A498
  GI50: > 100 µM (inactive)
HCC 2998
  GI50: > 100 µM (inactive)
KM12
  GI50: > 100 µM (inactive)
LOX IMVI
  GI50: > 100 µM (inactive)
MDA-MB-435
  GI50: > 100 µM (inactive)
NCI-H23
  GI50: > 100 µM (inactive)
NCI-H522
  GI50: > 100 µM (inactive)
SF-295
  GI50: > 100 µM (inactive)
SK-MEL-28
  GI50: > 100 µM (inactive)
SK-OV-3
  GI50: > 100 µM (inactive)

## Oc1cc(-c2ccc(F)cc2)nc2ncccc12
A498
  GI50: 87.3 µM (inactive)
BT-549
  GI50: > 100 µM (inactive)
CAKI-1
  GI50: 70.5 µM (inactive)
EKVX
  GI50: 39.4 µM (inactive)
HCC 2998
  GI50: > 100 µM (inactive)
HCT-15
  GI50: 34.2 µM
KM12
  GI50: 31.9 µM (inactive)
LOX IMVI
  GI50: 45.5 µM (inactive)
M14
  GI50: 61.5 µM (inactive)
NCI-H23
  GI50: 63.4 µM (inactive)
NCI-H522
  GI50: 35.4 µM (inactive)
OVCAR-5
  GI50: 98.9 µM (inactive)
SF-539
  GI50: 41 µM (inactive)
SK-MEL-28
  GI50: > 100 µM (inactive)
SK-MEL-2
  GI50: 33.5 µM (inactive)
SK-OV-3
  GI50: 30.3 µM (inactive)
